The text below walks through data of US20230381270A1, “PHARMACEUTICAL COMBINATIONS FOR TREATING CANCER” (POLYPHOR AG, priority 2017, published 2023).

Like-named read-outs stand apart in the source and are kept apart here.

One series concerns advanced cancer. The following applies: monotherapy (Galsky 2014); cited from earlier work.
Series [1] can be described thus: Phase I trial of eribulin + POL6326: safety and tolerability (adverse events). It is filed as in vivo, human. The following applies: balixafortide-related; most frequent during Day 1, Cycle 1. An excerpt:
This open-label, single-arm, non-randomised Phase I, dose escalation trial enrolled HER2-negative (any oestrogen or progesterone receptor status) females age […] years with histologically confirmed invasive breast cancer, stage IV disease (American Joint Committee on Cancer criteria), evidence of tumour cell CXCR4 expression by immunohistochemistry on tumour tissue (archival primary tumour, metastatic tissue, or from a fresh biopsy), and at least one measurable lesion according to Response Evaluation Criteria in Solid Tumours (RECIST) 1.1 criteria. Patients had previously received […] chemotherapy regimens for metastatic breast cancer (MBC). Patients with hormone receptor positive status must have failed at least one endocrine therapy or be considered unsuitable for endocrine therapy. Eligibility criteria also included an Eastern Cooperative Oncology Group performance status of 0 or 1. This phase I study investigates the combination of eribulin with POL6326 in relapsed metastatic breast cancer. The primary objectives are the safety, tolerability, and pharmacokinetics (PK) of this combination therapy, as well as the maximum tolerated dose (MTD) and recommended phase 2 dose (RP2D) of POL6326 when added to eribulin. Efficacy, as measured by tumor response, was additionally assessed.
Treatment cycles of 21 days each. […]

The target in another series is human CXCR4 receptor (Homo sapiens, UniProt P61073). Description: In vitro receptor binding studies. An excerpt: (§1) Cyclo(-Tyr-His-Ala-Cys-Ser-Ala-^DPro-Dab-Arg-Tyr-Cys-Tyr-Gln-Lys-^DPro-Pro-) having a disulfide bond between Cys4 and Cys11 is also referred as POL6326 herein or balixafortide. POL6326 is a cyclic synthetic peptide consisting of 16 amino acids and an antagonist of the highly conserved chemokine receptor CXCR4 and is being developed as an IV treatment in combination with chemotherapy in patients with leukemias (autologous transplantation).

Series [2] concerns other potential target receptors. Description: In vitro receptor binding studies, other receptors.
Source text: as §1

The test system of a further series is metastatic breast cancer. The following applies: cited from earlier work.
The mark [3] stands for this setting: Phase II study, eribulin alone (Cortes et al 2010).
The mark [4] stands for this setting: Phase II study, eribulin alone (Vandat et al 2009).
[5] abbreviates: relapsed mBC patients in 3rd line and beyond, published data.

human CXCR4 receptor, sequence (P61073 whole entry): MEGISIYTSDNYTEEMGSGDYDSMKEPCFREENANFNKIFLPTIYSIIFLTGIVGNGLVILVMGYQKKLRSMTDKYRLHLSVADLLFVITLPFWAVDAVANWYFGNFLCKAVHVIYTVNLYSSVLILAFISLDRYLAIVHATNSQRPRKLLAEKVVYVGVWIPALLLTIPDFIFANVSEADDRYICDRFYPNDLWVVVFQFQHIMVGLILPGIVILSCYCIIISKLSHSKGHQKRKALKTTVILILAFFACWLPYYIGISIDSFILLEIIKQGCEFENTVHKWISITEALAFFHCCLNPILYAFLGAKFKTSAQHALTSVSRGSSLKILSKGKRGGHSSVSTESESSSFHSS

LY2510924: the DLT entry in the series on advanced cancer is recorded as “abnormal neutrophil count”.

For “Cyclo(-Tyr-His-Ala-Cys-Ser-Ala-^DPro-Dab-Arg-Tyr-Cys-Tyr-Gln-Lys-^DPro-Pro-) having a disulfide bond between Cys4 and Cys11 [POL6326]”, the “infusion-related reactions (IRRs)” value in series [1] is recorded as “the majority were low grade”. Moreover, on human CXCR4 receptor, the “affinity for the human CXCR4 receptor” value was “significant affinity”. Further, in series [2], the “binding to other potential target receptors” value is reported as “general lack of significant binding”.

As to `C=C1C[C@@H]2CC[C@@]34C[C@H]5O[C@H]6[C@@H](O3)[C@H]3O[C@H](CC[C@@H]3O[C@H]6[C@H]5O4)CC(=O)C[C@@H]3[C@@H](OC)[C@@H](C[C@H](O)CN)O[C@H]3C[C@H]3O[C@@H](CC[C@@H]1O2)C[C@@H](C)C3=C` [eribulin, 2-(3-amino-2-hydroxypropyl)hexacosahydro-3-methoxy-26-methyl-20,27-bis(methylene)11,15-18,21-24,28-triepoxy-7,9-ethano-12,15-methano-9H,15H-furo (3,2-i)furo(2′,3′-5,6)pyrano (4,3-b)(1,4)dioxacyclopentacosin-5-(4H)-one], the CBR is given as 17.1% in the series on metastatic breast cancer (setting [3]) and 17.2% in the series on metastatic breast cancer (setting [4]). The ORR in the series on metastatic breast cancer (setting [3]) was 9%; in the series on metastatic breast cancer (setting [4]) it was 11.5%; in the series on metastatic breast cancer (randomised Phase III trial (EMBRACE, Cortes 2011)), 12%; with metastatic breast cancer (randomised Phase III trial (Kaufman 2015)), 11%. Further, the mPFS in the series with metastatic breast cancer (eribulin alone, published trials recruiting similar patients) is given as 2.6-4.1 months. For the same molecule, in the series on metastatic breast cancer (eribulin alone, reported), the “One year OS” value is listed as 53.9%. In the series on metastatic breast cancer (setting [5]), the “overall survival (OS)” value was 13.1 months. Moreover, the “progression-free survival (PFS)” value with metastatic breast cancer (setting [5]) is 3.7 months.
